According to patent publication US6914045B2, “Glycopeptide antibiotics” (Wyeth Holdings Corporation, priority 2001, dated 2005):

What was measured:
[1] = system: Staphylococcus aureus-SMITH (GC 4543); experiment: acute lethal infection in mice; assay type: in vivo; details: acute lethal infection, female CD-1 mice, intraperitoneal challenge, intravenous 30 min. after infection, 7 day survival
Method in brief: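 Intraperitoneal challenge of female CD-1 mice with a bacterial dose lethal to untreated animals within 24-48 hr; single iv treatment 30 min later, 5 mice per dose level. Survival is scored at day 7 and pooled from three experiments to give the median effective dose.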

Enterococcus sp. = experiment: in vitro antibacterial evaluation, MIC by broth dilution; assay type: cell-based; details: broth dilution, 18 hours at 35° C.; for MIC Enterococcus faecalis (ATCC 29212): strain ATCC 29212; for MIC Enterococcus faecalis (GC 2242): strain GC 2242; for MIC Enterococcus faecium (GC 2243): strain GC 2243; for MIC Enterococcus faecalis (GC 2691): strain GC 2691; for MIC Enterococcus faecalis (GC 3059): strain GC 3059; for MIC Enterococcus faecalis (GC 4552): strain GC 4552; for MIC Enterococcus faecalis (GC 4553): strain GC 4553; for MIC Enterococcus faecalis (GC 4554): strain GC 4554; for MIC Enterococcus faecium (GC 4556): strain GC 4556; for MIC Enterococcus faecium (GC 4557): strain GC 4557; for MIC Enterococcus avium (GC 4558): strain GC 4558; for MIC Enterococcus faecalis (GC 6189): strain GC 6189
Method in brief: (§1)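 Broth dilution per NCCLS standard M7-A2 in Muller-Hinton II […], with an inoculum of 5×10^5 CFU/mL and antibiotic spanning 64-0.06 μg/mL. The MIC is the lowest concentration that inhibits growth of the organism.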

Staphylococcus sp. = experiment: as above; assay type: cell-based; details: broth dilution, 18 hours at 35° C.; for MIC Staphylococcus aureus (GC 1131): strain GC 1131
Method in brief: as §1

Escherichia coli = experiment: as above; assay type: cell-based
Method in brief: as §1

Streptococcus sp. = experiment: as above; assay type: cell-based; details: broth dilution, 18 hours at 35° C.; for MIC Streptococcus pneumoniae (ATCC 6301): strain ATCC 6301; for MIC Streptococcus pneumoniae (GC 1894): strain GC 1894; for MIC Streptococcus pyogenes (GC 4563): strain GC 4563; for MIC Streptococcus agalactiae (GC 4564): strain GC 4564; for MIC Streptococcus pneumoniae (GC 4565): strain GC 4565
Method in brief: as §1

COc1ccc(Oc2cccc(C3OCC4OC(OC5C(CO)OC(Oc6ccc(CC7NC(=O)C(C(C)c8ccccc8)NC(=O)CNC(=O)C(CO)NC(=O)C(C(O)C8CNC(=N)N8C8OC(CO)C(O)C(O)C8O)NC(=O)C(C(O)C8CNC(=N)N8)NC7=O)cc6)C(O)C5O)C(O)C(O)C4O3)c2)cc1 (stereo not drawn) [Example 180, Cyclo[glycyl-β-methylphenylalanyl-O-[4-O-[4,6-O-[3-(4-methoxyphenoxy)benzylidene]hexopyranosyl]hexopyranosyl]tyrosyl-3-(2-iminoimidazolidin-4-yl)seryl-3-(3-hexopyranosyl-2-iminoimidazolidin-4-yl)serylseryl]]
<0.06 µg/mL: MIC Streptococcus pneumoniae (ATCC 6301) (Streptococcus sp.; inoculum 5×10^5 CFU/mL) | MIC Streptococcus pneumoniae (GC 1894) (Streptococcus sp.; inoculum 5×10^5 CFU/mL) | MIC Streptococcus pyogenes (GC 4563) (Streptococcus sp.; inoculum 5×10^5 CFU/mL) | MIC Streptococcus agalactiae (GC 4564) (Streptococcus sp.; inoculum 5×10^5 CFU/mL) | MIC Streptococcus pneumoniae (GC 4565) (Streptococcus sp.; inoculum 5×10^5 CFU/mL) | MIC Streptococcus pneumoniae (ATCC 6301) (Streptococcus sp.) | MIC Streptococcus pneumoniae (GC 1894) (Streptococcus sp.) | MIC Streptococcus pyogenes (GC 4563) (Streptococcus sp.) | MIC Streptococcus agalactiae (GC 4564) (Streptococcus sp.) | MIC Streptococcus pneumoniae (GC 4565) (Streptococcus sp.)
>64 µg/mL: MIC Escherichia coli (ATCC 25922) (Escherichia coli; strain ATCC 25922, 18 hours at 35° C.)
4 µg/mL: MIC Enterococcus faecalis (ATCC 29212) (Enterococcus sp.; inoculum 5×10^5 CFU/mL) | MIC Enterococcus faecalis (GC 2242) (Enterococcus sp.; inoculum 5×10^5 CFU/mL) | MIC Enterococcus faecalis (ATCC 29212) (Enterococcus sp.) | MIC Enterococcus faecalis (GC 2242) (Enterococcus sp.)
1 µg/mL: MIC Staphylococcus aureus (GC 3051) (Staphylococcus sp.; strain GC 3051) | MIC Coagulase Negative Staphylococcus (GC 4548) (Staphylococcus sp.; strain GC 4548) | MIC Coagulase Negative Staphylococcus (GC 4549) (Staphylococcus sp.; strain GC 4549) | MIC Coagulase Negative Staphylococcus (GC 4551) (Staphylococcus sp.; strain GC 4551)
64 µg/mL: MIC Escherichia coli (GC 4559) (Escherichia coli; strain GC 4559, 18 hours at 35° C.)
0.5 µg/mL: MIC Coagulase Negative Staphylococcus (GC 6257) (Staphylococcus sp.; strain GC 6257)
0.05 mg/kg: median effective dose (ED50), Staphylococcus aureus-SMITH (GC 4543) [1]
2 µg/mL: MIC Enterococcus faecium (GC 2243) (Enterococcus sp.; inoculum 5×10^5 CFU/mL) | MIC Enterococcus faecalis (GC 2691) (Enterococcus sp.; inoculum 5×10^5 CFU/mL) | MIC Enterococcus faecalis (GC 3059) (Enterococcus sp.; inoculum 5×10^5 CFU/mL) | MIC Enterococcus faecalis (GC 4552) (Enterococcus sp.; inoculum 5×10^5 CFU/mL) | MIC Enterococcus faecalis (GC 4553) (Enterococcus sp.; inoculum 5×10^5 CFU/mL) | MIC Enterococcus faecalis (GC 4554) (Enterococcus sp.; inoculum 5×10^5 CFU/mL) | MIC Enterococcus faecium (GC 4556) (Enterococcus sp.; inoculum 5×10^5 CFU/mL) | MIC Enterococcus faecium (GC 4557) (Enterococcus sp.; inoculum 5×10^5 CFU/mL) | MIC Enterococcus avium (GC 4558) (Enterococcus sp.; inoculum 5×10^5 CFU/mL) | MIC Enterococcus faecalis (GC 6189) (Enterococcus sp.; inoculum 5×10^5 CFU/mL) | MIC Enterococcus faecium (GC 2243) (Enterococcus sp.) | MIC Enterococcus faecalis (GC 2691) (Enterococcus sp.) | MIC Enterococcus faecalis (GC 3059) (Enterococcus sp.) | MIC Enterococcus faecalis (GC 4552) (Enterococcus sp.) | MIC Enterococcus faecalis (GC 4553) (Enterococcus sp.) | MIC Enterococcus faecalis (GC 4554) (Enterococcus sp.) | MIC Enterococcus faecium (GC 4556) (Enterococcus sp.) | MIC Enterococcus faecium (GC 4557) (Enterococcus sp.) | MIC Enterococcus avium (GC 4558) (Enterococcus sp.) | MIC Enterococcus faecalis (GC 6189) (Enterococcus sp.) | MIC Staphylococcus aureus (GC 1131) (Staphylococcus sp.; inoculum 5×10^5 CFU/mL) | MIC Staphylococcus aureus (ATCC 29213) (Staphylococcus sp.; strain ATCC 29213) | MIC Staphylococcus aureus (GC 1131) (Staphylococcus sp.) | MIC Staphylococcus aureus (GC 3053) (Staphylococcus sp.; strain GC 3053) | MIC Staphylococcus aureus (GC 4541) (Staphylococcus sp.; strain GC 4541) | MIC Staphylococcus aureus (GC 4542) (Staphylococcus sp.; strain GC 4542) | MIC Staphylococcus aureus (GC 4544) (Staphylococcus sp.; strain GC 4544) | MIC Staphylococcus aureus (GC 4545) (Staphylococcus sp.; strain GC 4545) | MIC Staphylococcus aureus-SMITH (GC 4543) (Staphylococcus sp.; strain GC 4543) | MIC Staphylococcus haemolyticus (GC 4546) (Staphylococcus sp.; strain GC 4546) | MIC Coagulase Negative Staphylococcus (GC 4547) (Staphylococcus sp.; strain GC 4547) | MIC Escherichia coli (GC 4560) (Escherichia coli; strain GC 4560, 18 hours at 35° C.)
